Common to all, as to experiment: relative viability (nuclei count vs DMSO), 5 days (fraction); higher = more cells survive
Compound in the experiment “MK-8033 + Vorinostat”: Cn1cc(-c2cnc3ccc4ccc(CS(=O)(=O)NCc5ccccn5)cc4c(=O)c3c2)cn1 [MK-8033] + O=C(CCCCCCC(=O)Nc1ccccc1)NO [Vorinostat] (partner 1 µM)
The method in brief:
(§1)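 Lung cancer cell lines were seeded in 1536-well plates and dosed by pin tool the next day, with either a single drug or a fixed anchor-drug dose combined with five library-drug doses (not always all listed) spaced in √10 steps. Five days later, one step fixed the cells and stained their nuclei (final 0.05% Triton X-100, 1% formaldehyde, 1 ug/ml Hoechst), and nuclei were counted on 4× images. Relative viability is the nuclei count in treated wells divided by the count in vehicle wells, and each value is the median of duplicate plates.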

Compound in the experiment “RU-SKI 43 + Foretinib”: CC[C@@H](C)CNCC(=O)N1CCC2=C([C@@H]1COC3=CC=CC(=C3)C)C=CS2 [RU-SKI 43] + COc1cc2c(Oc3ccc(NC(=O)C4(C(=O)Nc5ccc(F)cc5)CC4)cc3F)ccnc2cc1OCCCN1CCOCC1 [Foretinib] (partner 0.25 µM)
The method in brief: as §1

Compound in the experiment “RU-SKI 43 + Bortezomib”: CC[C@@H](C)CNCC(=O)N1CCC2=C([C@@H]1COC3=CC=CC(=C3)C)C=CS2 [RU-SKI 43] + CC(C)C[C@H](NC(=O)[C@H](Cc1ccccc1)NC(=O)c1cnccn1)B(O)O [Bortezomib] (partner 0.002 µM)
The method in brief: as §1

Compound in the experiment “Irinotecan + Tozasertib”: CCc1c2c(nc3ccc(OC(=O)N4CCC(N5CCCCC5)CC4)cc13)-c1cc3c(c(=O)n1C2)COC(=O)[C@]3(O)CC [Irinotecan] + Cc1cc(Nc2cc(N3CCN(C)CC3)nc(Sc3ccc(NC(=O)C4CC4)cc3)n2)n[nH]1 [Tozasertib] (partner 0.1 µM)
The essentials: as §1

As for 201T, the relative viability with MK-8033 + Vorinostat (first compound 0.02 µM) was 0.956; with MK-8033 + Vorinostat (first compound 0.06325 µM), 0.926; with MK-8033 + Vorinostat (first compound 0.2 µM), 0.791; with MK-8033 + Vorinostat (first compound 0.6325 µM), 0.949; in the experiment with MK-8033 + Vorinostat (first compound 2 µM) it was 0.962; with RU-SKI 43 + Foretinib (first compound 0.1 µM), 1.04. Also, the relative viability in the experiment with RU-SKI 43 + Foretinib (first compound 0.3162 µM) came to 1.11; with RU-SKI 43 + Foretinib (first compound 1 µM), 1.12; in the experiment with RU-SKI 43 + Foretinib (first compound 3.162 µM), 1.07; with RU-SKI 43 + Foretinib (first compound 10 µM), 1.01; in the experiment with RU-SKI 43 + Bortezomib (first compound 0.1 µM), 1.09; with RU-SKI 43 + Bortezomib (first compound 0.3162 µM) it was 1.09. Further, the relative viability in the experiment with RU-SKI 43 + Bortezomib (first compound 1 µM) was found to be 1.17; with RU-SKI 43 + Bortezomib (first compound 3.162 µM) it was 1.12; with RU-SKI 43 + Bortezomib (first compound 10 µM) it was 1.07; with Irinotecan + Tozasertib (first compound 2 µM), 0.682; with Irinotecan + Tozasertib (first compound 6.325 µM), 0.402; with Irinotecan + Tozasertib (first compound 20 µM), 0.318.

Consider A549, for which the relative viability came out at 1.12 in the experiment with RU-SKI 43 + Foretinib (first compound 0.1 µM); 1.1 with RU-SKI 43 + Foretinib (first compound 0.3162 µM); 1.06 with RU-SKI 43 + Foretinib (first compound 1 µM); 0.93 in the experiment with RU-SKI 43 + Foretinib (first compound 3.162 µM); 0.852 in the experiment with RU-SKI 43 + Foretinib (first compound 10 µM).

On to A-427, for which the relative viability came out at 0.886 in the experiment with MK-8033 + Vorinostat (first compound 0.02 µM); 0.826 with MK-8033 + Vorinostat (first compound 0.06325 µM); 0.819 with MK-8033 + Vorinostat (first compound 0.2 µM); 0.908 in the experiment with MK-8033 + Vorinostat (first compound 0.6325 µM); 0.881 with MK-8033 + Vorinostat (first compound 2 µM); 1.14 in the experiment with RU-SKI 43 + Foretinib (first compound 0.1 µM). For the same cell line, the relative viability with RU-SKI 43 + Foretinib (first compound 0.3162 µM) was found to be 1.03; with RU-SKI 43 + Foretinib (first compound 1 µM) it was 1.13; with RU-SKI 43 + Foretinib (first compound 3.162 µM) it was 1.11; with RU-SKI 43 + Foretinib (first compound 10 µM) it was 0.969; with RU-SKI 43 + Bortezomib (first compound 0.1 µM), 1.05; with RU-SKI 43 + Bortezomib (first compound 0.3162 µM), 0.95. Further, the relative viability with RU-SKI 43 + Bortezomib (first compound 1 µM) is 1.05; in the experiment with RU-SKI 43 + Bortezomib (first compound 10 µM), 0.896; with Irinotecan + Tozasertib (first compound 2 µM) it was 0.159; in the experiment with Irinotecan + Tozasertib (first compound 6.325 µM), 0.216; with Irinotecan + Tozasertib (first compound 20 µM), 0.182.

Regarding ABC-1, the relative viability stood at 1.24 with MK-8033 + Vorinostat (first compound 0.02 µM); 0.931 in the experiment with MK-8033 + Vorinostat (first compound 0.06325 µM); 0.928 with MK-8033 + Vorinostat (first compound 0.2 µM); 1.04 in the experiment with MK-8033 + Vorinostat (first compound 0.6325 µM); 0.975 with MK-8033 + Vorinostat (first compound 2 µM); 1.04 with RU-SKI 43 + Foretinib (first compound 0.1 µM). The relative viability with RU-SKI 43 + Foretinib (first compound 0.3162 µM) amounted to 1.05; with RU-SKI 43 + Foretinib (first compound 1 µM), 1.04; with RU-SKI 43 + Foretinib (first compound 3.162 µM) it was 1.06; with RU-SKI 43 + Foretinib (first compound 10 µM) it was 0.754; with RU-SKI 43 + Bortezomib (first compound 0.1 µM), 0.286; in the experiment with RU-SKI 43 + Bortezomib (first compound 0.3162 µM), 0.351. Besides, the relative viability with RU-SKI 43 + Bortezomib (first compound 1 µM) was 0.35; in the experiment with RU-SKI 43 + Bortezomib (first compound 3.162 µM), 0.285; with RU-SKI 43 + Bortezomib (first compound 10 µM), 0.312; in the experiment with Irinotecan + Tozasertib (first compound 2 µM) it was 0.236; in the experiment with Irinotecan + Tozasertib (first compound 6.325 µM), 0.211; in the experiment with Irinotecan + Tozasertib (first compound 20 µM) it was 0.114.

As to BEN, the relative viability was found to be 0.594 with MK-8033 + Vorinostat (first compound 0.02 µM); 0.537 with MK-8033 + Vorinostat (first compound 0.06325 µM); 0.602 with MK-8033 + Vorinostat (first compound 0.2 µM); 0.547 with MK-8033 + Vorinostat (first compound 0.6325 µM); 0.67 with MK-8033 + Vorinostat (first compound 2 µM); 0.789 with RU-SKI 43 + Foretinib (first compound 0.1 µM). Besides, the relative viability came to 0.548 with RU-SKI 43 + Foretinib (first compound 0.3162 µM); 0.992 with RU-SKI 43 + Foretinib (first compound 1 µM); 0.53 with RU-SKI 43 + Foretinib (first compound 3.162 µM); 0.705 with RU-SKI 43 + Foretinib (first compound 10 µM); 0.815 with RU-SKI 43 + Bortezomib (first compound 0.1 µM); 0.819 with RU-SKI 43 + Bortezomib (first compound 0.3162 µM). The relative viability was determined as 1.24 with RU-SKI 43 + Bortezomib (first compound 1 µM); 0.769 with RU-SKI 43 + Bortezomib (first compound 3.162 µM); 0.665 with RU-SKI 43 + Bortezomib (first compound 10 µM); 0.378 with Irinotecan + Tozasertib (first compound 0.6325 µM); 0.499 with Irinotecan + Tozasertib (first compound 2 µM); 0.447 with Irinotecan + Tozasertib (first compound 6.325 µM). Further, the relative viability with Irinotecan + Tozasertib (first compound 20 µM) worked out at 0.34.

As for CAL-12T, the relative viability in the experiment with MK-8033 + Vorinostat (first compound 0.02 µM) stood at 0.797; with MK-8033 + Vorinostat (first compound 0.06325 µM), 0.709; with MK-8033 + Vorinostat (first compound 0.2 µM), 0.81; with MK-8033 + Vorinostat (first compound 0.6325 µM), 0.775; with MK-8033 + Vorinostat (first compound 2 µM) it was 0.673; with RU-SKI 43 + Foretinib (first compound 0.1 µM), 1.05. For the same cell line, the relative viability in the experiment with RU-SKI 43 + Foretinib (first compound 0.3162 µM) is 1.31; with RU-SKI 43 + Foretinib (first compound 1 µM), 1.09; with RU-SKI 43 + Foretinib (first compound 3.162 µM) it was 1.18; with RU-SKI 43 + Foretinib (first compound 10 µM), 1.06; with RU-SKI 43 + Bortezomib (first compound 0.1 µM), 0.967; with RU-SKI 43 + Bortezomib (first compound 0.3162 µM) it was 1. Also, the relative viability was 1.3 with RU-SKI 43 + Bortezomib (first compound 1 µM); 0.961 with RU-SKI 43 + Bortezomib (first compound 3.162 µM); 0.964 in the experiment with RU-SKI 43 + Bortezomib (first compound 10 µM); 0.419 in the experiment with Irinotecan + Tozasertib (first compound 2 µM); 0.322 in the experiment with Irinotecan + Tozasertib (first compound 6.325 µM); 0.197 in the experiment with Irinotecan + Tozasertib (first compound 20 µM).

In the case of COR-L23, the relative viability with MK-8033 + Vorinostat (first compound 0.02 µM) came to 0.423; with MK-8033 + Vorinostat (first compound 0.06325 µM), 0.408; in the experiment with MK-8033 + Vorinostat (first compound 0.2 µM) it was 0.385; with MK-8033 + Vorinostat (first compound 0.6325 µM), 0.459; with MK-8033 + Vorinostat (first compound 2 µM) it was 0.491; with RU-SKI 43 + Foretinib (first compound 0.1 µM), 0.914. Further, the relative viability in the experiment with RU-SKI 43 + Foretinib (first compound 0.3162 µM) came to 1.19; with RU-SKI 43 + Foretinib (first compound 1 µM), 1.24; with RU-SKI 43 + Foretinib (first compound 3.162 µM) it was 1.04; with RU-SKI 43 + Foretinib (first compound 10 µM) it was 0.842; in the experiment with RU-SKI 43 + Bortezomib (first compound 0.1 µM), 1.18; with RU-SKI 43 + Bortezomib (first compound 0.3162 µM) it was 0.714. Besides, the relative viability came to 1.12 with RU-SKI 43 + Bortezomib (first compound 1 µM); 1.14 in the experiment with RU-SKI 43 + Bortezomib (first compound 3.162 µM); 1.03 in the experiment with RU-SKI 43 + Bortezomib (first compound 10 µM); 0.161 with Irinotecan + Tozasertib (first compound 0.6325 µM); 0.225 in the experiment with Irinotecan + Tozasertib (first compound 2 µM); 0.176 with Irinotecan + Tozasertib (first compound 6.325 µM). In the experiment with Irinotecan + Tozasertib (first compound 20 µM), the relative viability worked out at 0.105.

Turning to COR-L 105, the relative viability amounted to 0.88 with MK-8033 + Vorinostat (first compound 0.02 µM); 0.891 with MK-8033 + Vorinostat (first compound 0.06325 µM); 0.708 with MK-8033 + Vorinostat (first compound 0.2 µM); 0.782 with MK-8033 + Vorinostat (first compound 0.6325 µM); 0.547 with MK-8033 + Vorinostat (first compound 2 µM); 0.995 in the experiment with RU-SKI 43 + Foretinib (first compound 0.1 µM). Besides, the relative viability with RU-SKI 43 + Foretinib (first compound 0.3162 µM) is 0.903; in the experiment with RU-SKI 43 + Foretinib (first compound 1 µM) it was 1.18; in the experiment with RU-SKI 43 + Foretinib (first compound 3.162 µM), 1.04; with RU-SKI 43 + Foretinib (first compound 10 µM) it was 0.736; in the experiment with RU-SKI 43 + Bortezomib (first compound 0.1 µM), 0.893; in the experiment with RU-SKI 43 + Bortezomib (first compound 0.3162 µM) it was 0.726. Further, the relative viability with RU-SKI 43 + Bortezomib (first compound 1 µM) was found to be 0.83; with RU-SKI 43 + Bortezomib (first compound 3.162 µM) it was 0.963; in the experiment with RU-SKI 43 + Bortezomib (first compound 10 µM) it was 0.616; with Irinotecan + Tozasertib (first compound 0.6325 µM), 0.346; with Irinotecan + Tozasertib (first compound 2 µM), 0.373; with Irinotecan + Tozasertib (first compound 6.325 µM), 0.458. Moreover, in the experiment with Irinotecan + Tozasertib (first compound 20 µM), the relative viability amounted to 0.273.

The values above are taken from the supplement of paper PMC10307832.
